Data as given in patent publication US5670506A, “Halogen, isothiocyanate or azide substituted xanthines” (Cell Therapeutics, Inc., priority 1993, dated 1997).
“Also recorded” adds a separate entry of the source.

Key:
Type in all cases: cell-based
[1] = system: CMV promoter activity in transformed (adenovirus) cells; assay: CMV promoter assay (gene transcription and translation, cytotoxic activity); conditions: read-out: IC50 (μM), CMV promoter assay
Description: This example illustrates data regarding proliferative activity of various inventive compounds for inducting CMV promoter activity. The CMV promoter assay measures gene transcription and translation activity wherein any active compounds will nave cytotoxic activity to inhibit cellular protein synthesis machinery in transformed (adenovirus) cells.

[2] = system: human stromal cells; assay: inhibition of proliferation of human stromal cells stimulated with PDGF; conditions: FIG. 7; 50 ng/ml PDGF-BB, in words
Experimental: (§1) This assay is a model for restenosis and treatment of atherosclerosis and coronary artery disease. Stromal cells were starved in serum-free media for one day and then stimulated with 50 ng/ml PDGF-BB. The drags were added at the indicated concentrations one hour prior to PDGF stimulation. Tritiated thymidine was added for one day at the time of PDGF stimulation and the cells were harvested and counted by liquid scintillation counting 24 hrs later. Background counts (i.e., starved cells) were approximately 1% of control levels.
Another assay for measuring activity of the inventive compounds involves determining PDGF (platelet derived growth factor) proliferative response using human-derived stromal cells. Human stromal cells are plated (e.g., about 2000 cells per well) in defined media (e.g., 69% McCoy's, 12.5% fetal calf serum, 12.5% horse serum, 1% antibiotics, 1% glutamine, 1% vitamin supplement, 0.8% essential amino acids, 1% sodium pyruvate, 1% sodium bicarbonate, 0.4% non-essential amino acids and 0.36% hydrocortisone). Two to three days later, the stromal cells are starved in serum-free media. Twenty four hours later, the cells are treated with a stimulating agent, such as PDGF-AA, PDGF-BB or basic FGF (fibroblast growth factor) with or without IL-1α or TNF, and tritiated thymidine. Cell proliferation is determined by liquid scintillation counting.
as §1, with “drugs” for “drags”

[3] = system: transformed cells (Ras 3T3) and normal 3T3 cells; assay: cytotoxicity in transformed and normal 3T3 cells; conditions: FIG. 9; five compounds
Experimental: A similar experiment is shown in FIG. 9 for five inventive compounds (see Table 1 […] for chemical names) showing differential cytotoxicity for the same normal and transformed cells.
Each inventive compound is investigated for cytotoxicity to determine appropriate doses for biological activity assays and to prevent cytotoxic reactions in in vitro assays when characterizing activity. Cells (e.g., NIH-3T3, Ras transformed 3T3 cells, malignant melanoma LD2 cells, etc.) are added to microtiter plates and drug is added about two days after plating. Cell viability is determined using a fluorescent viability stain (e.g., 2',7'-bis-(2-carboroxyethyl)-5-(and -6)-carboxyfluorescein acetoxymethyl ester, BCECF excitation 488 nm and emission 525 nm) 24, 48 or 72 hours after addition of the drug.
This example illustrates a comparison of cytotoxicity determinations for CT1595 in transformed cells (Ras 3T3) and in normal 3T3 cells at drug doses of 1, 10 and 100 μM in in vitro cell culture conditions (FIG. 8). […] A similar experiment is shown in FIG. 9 for five inventive compounds (see Table 1 above for chemical names) showing differential cytotoxicity for the same normal and transformed cells.

[4] = system: TNF release from monocytes in whole blood; assay: ex vivo human TNF model, LPS-mediated TNF release in whole blood; conditions: FIG. 14
Experimental: (§2) This model adds LPS to whole blood (normal human volunteers) to trigger a dose-dependent synthesis and extracellular release of TNF according to Desch et al. (Lymphokine Res. 8:141, 1989). The ex vivo model examines whether LPS-mediated release of TNF from monocytes in whole blood can be block by an inventive compound.
An ex vivo human sepsis model is described in Desch et al., Lymphokine Res. 8:141, 1989 and in Ooi et al., J. Exp. Med. 174:649, 1991. Briefly, whole blood from humans is incubated with LPS (endotoxin). TNF released from cells (mostly from monocytes) is measured. The inventive compounds lower TNF levels as compared with untreated controls in this model.
as §2, with “This example illustrates a comparative experiment comparing CT1595, CT1529 and CT2519 in an ex vivo human TNF model described herein. This assay is a predictive model for treatment and prevention of septic shock and sepsis syndrome. This” for “This”

[5] = system: mast cells; assay: mast cell degranulation, serotonin release assay; conditions: 100 μM
Description: A serotonin release assay is utilized to study the utility of the inventive compounds for treatment of asthma and allergy. This assay measures mast cell degranulation, which is an early phase reaction to allergen challenge. Mast cells grown in tissue culture are first loaded with ^3 H serotonin, which is incorporated into the granules in the cells. The mast cells are sensitized with antigen specific monoclonal IgE, and then triggered to degranulate with the specific antigen (dinitrophenol bound to BSA (DNP)). When the cells degranulate, ^3 H Serotonin is released into the medium, and can be measured directly. The ability of the inventive compounds to inhibit the degranulation response is determined by the decrease in ^3 H Serotonin released in the presence of drug and is represented as % INHIBITION. The IC50 of any given compound is determined by the ability of that compound to inhibit degranulation by 50%.
Specifically, the serotonin release assay seeds 2×10^5 cells in 0.5 ml medium in duplicate for spontaneous release, IgE+DNP, IgE+DNP+EtOH (vehicle control), and inventive compounds. One μCi [^3H ]-Serotonin/ml (i.e., 0.5 μCi/well) (NEN Research Products, cat. #NET-398 Hydroxytryptamine Binoxalate, 5-[1,2-^3 H(N)]-(Serotonin Binoxalate, [1,2-^3 H(N)]-)) and 1 μl/ml IgE is added. The cells are incubated for 18 hours at 37° C. in 5% CO2, washed twice with 0.5 ml Isotonic Buffer (25 mM disodium PIPES pH 7.1,100 mM NaCl, 5 mM KCl, 5 mM glucose, 0.4 mM MgCl2, 1 mM CaCl2, 0.1% BSA), and sterile filtered. 250 μl Isotonic Buffer is added per well and the plates are equilibrated in an incubator for about 10 min. Drug is added and cells are activated with 40 ng/ml DNP-BSA (1 mg/ml Diluted 1:200 in Isotonic Buffer) for 45 minutes using 2 μl/250 μl. Spontaneous release is determined in incubated cells with 250 μl Isotonic Buffer for 45 minutes and the reaction is stopped by removing supernatant and centrifuging at ~4000 rpm in microfuge for 15 seconds to remove any detached cells. Released radiolableled serotonin is counted. To determine amount of ^3 H-serotonin incorporated into the cells, (a) remove Isotonic Buffer and lyse cells by adding 250 μl 1% Triton-X100 in PBS, (b) add to 5 ml scintillation fluid, (c) wash 2× with Triton/PBS, and (d) add washes to scintillation tube. Percent serotonin release is calculated by dividing the amount of released serotonin by the sum of incorporated plus released serotonin and correcting for spontaneous released serotonin. Compound inhibition is calculated by dividing the percent serotonin release in the presence of a compound by the percent serotonin release in the absence of the compound.
This assay is described above and provides an in vitro model for an allergy and asthma therapeutic compound.

Row | Compound | IC50 [1] | inhibition of human stromal cell proliferation [2] | cytotoxic activity, normal and transformed 3T3 cells [3] | block of LPS-mediated TNF release [4] | inhibition at 100 µM [5]
1 | CC(=O)OC(CBr)CCCCn1c(=O)c2ccccc2n(C)c1=O (stereo not shown) [CT1205, 3-(5-acetoxy-6-bromohexyl)-1-methylbenzoyleneurea] | 200 µM |  |  |  | 
2 | CC(=O)OC(CBr)CCCCCCn1c(=O)c2c(ncn2C)n(C)c1=O (stereo not shown) [CT1514, 1-(7-acetoxy-8-bromooctyl)-3,7-dimethylxanthine] | > 500 µM | strongly inhibit proliferation |  |  | 
3 | Cn1cnc2c1c(=O)n(CCCCC(O)CN=[N+]=[N-])c(=O)n2C (stereo not shown) [CT1517, 1-(6-azido-5-hydroxyhexyl)-3,7-dimethylxanthine] | > 500 µM | strongly inhibit proliferation |  |  | 
4 | Cn1cnc2c1c(=O)n(CCCCCCCl)c(=O)n2C [CT1525, 1-(6-chlorohexyl)-3,7-dimethylxanthine] | > 500 µM |  |  |  | 
5 | Cn1cnc2c1c(=O)n(CCCCCCOC(=O)CCl)c(=O)n2C [CT1527, 1-(6-(chloroacetoxy)hexyl)-3,7-dimethylxanthine] | 200 µM |  |  |  | 
6 | CC(CCCCn1c(=O)c2c(ncn2C)n(C)c1=O)OC(=O)CCl (stereo not shown) [CT1529, 1-(5-(chloroacetoxy)hexyl)-3,7-dimethylxanthine] | 100 µM |  | significant cytotoxic activity | could block TNF release in a dose-dependent fashion; also recorded: most effective agent at lower doses | 
7 | CC(F)CCCCn1c(=O)c2c(ncn2C)n(C)c1=O (stereo not shown) [CT1577, 1-(5-fluorohexyl)-3,7-dimethylxanthine] | > 500 µM | strongly inhibit proliferation |  |  | 46%
8 | CC(=O)OC(CBr)CCCCCCCCn1c(=O)c2c(ncn2C)n(C)c1=O (stereo not shown) [CT1583, 1-(9-acetoxy-10-bromodecyl)-3,7-dimethylxanthine] | > 500 µM | strongly inhibit proliferation |  |  | 
9 | Cn1cnc2c1c(=O)n(CCCCCCBr)c(=O)n2C [CT1589, 1-(6-bromohexyl)-3,7-dimethylxanthine] | 125 µM | strongly inhibit proliferation |  |  | 53%
10 | CC(=O)OC(CBr)CCCCCCCn1c(=O)c(C)cn(C)c1=O (stereo not shown) [CT1908, 3-(8-acetoxy-9-bromononyl)-1-methylthymine] | 50 µM |  |  |  | 
